How the values were obtained:
[1] = molecular target: L192A mutant human CB2 receptor (Homo sapiens, UniProt P34972, L192A); format: binding
[2] = molecular target: V113L mutant human CB2 receptor (Homo sapiens, UniProt P34972, V113L); format: binding
V113L mutant human CB2 receptor, sequence (P34972 whole entry V113L): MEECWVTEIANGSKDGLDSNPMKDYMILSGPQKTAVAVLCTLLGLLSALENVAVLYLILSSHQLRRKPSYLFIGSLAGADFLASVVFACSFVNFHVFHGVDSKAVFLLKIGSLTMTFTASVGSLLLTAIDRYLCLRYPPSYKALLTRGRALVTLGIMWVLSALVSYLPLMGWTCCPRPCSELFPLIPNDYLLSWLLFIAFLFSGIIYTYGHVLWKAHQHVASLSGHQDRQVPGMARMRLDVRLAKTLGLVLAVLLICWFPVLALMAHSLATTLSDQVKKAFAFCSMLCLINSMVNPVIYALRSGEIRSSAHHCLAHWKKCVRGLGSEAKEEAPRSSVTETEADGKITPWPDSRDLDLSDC

L192A mutant human CB2 receptor, sequence (P34972 whole entry L192A): as the sequence (P34972 whole entry V113L) above, with L113V, L192A counted along it

Which “Reduction of binding compared to wild type” value ([1]; L192A mutant vs wild type CB2) does the source give for SR144528 here?
Its value is 5 fold.

What about the “Effect of substitution on CB2 binding affinity compared to the wild-type” value ([1]; L192A mutant vs wild type CB2, in words) of the same substance?
Its value is “slightly reduced”.

And the “Reduction of binding compared to wild type” value ([2]; V113L mutant vs wild type CB2)?
Its value is 6 fold.

And the “Effect of substitution on CB2 binding affinity compared to the wild-type” value ([2]; V113L mutant vs wild type CB2, in words)?
The value was “slight reduction”.

Source: article PMC4465889 (Biochemical and biophysical research communications, 2014)
